Patent US20190183812A1, “Compounds For The Treatment Of Neuromuscular Disorders” (NMD PHARMA A/S, priority 2017, published 2019)
Where a name gives a salt, the structure may show the parent alone. Read-outs that look alike come from different tables or passages of the source.

Legend:
rat soleus muscles [1] = experiment: Mg2+ concentration required to depress nerve-stimulated force by 50% (Kd,Mg2+), combination with 3,4-AP; conditions: 3,4-AP (10 μM) alone
Protocol: FIGS. 6A-6E. […] Muscles from 4-week-old rats were stimulated to contract by activating the motor nerve with short duration pulses in field stimulation. Muscles contracted every 10 min for 2 s in response to 30 Hz stimulation. Four different experimental conditions were used. […] C) similar to A) but this muscle had been pre-incubated with 3,4-AP. […] The force integral (AUC) was determined at each extracellular Mg^2+ concentration. AUC was plotted against Mg^2+ concentration and the data was fitted to a sigmoidal function. This provided the extracellular Mg^2+ concentration that was required to reduce the nerve-stimulated force to 50% (Mg50) under the four different conditions (see Table 5).
While the use of tubocurarine mimics conditions with reduced neuromuscular transmission due to post-synaptic dysfunction (myasthenia gravis, neuromuscular blockade), the experiments with elevated extracellular Mg^2+ mimics conditions with pre-synaptic dysfunction akin to a range of neuromuscular disorders including Lambert Eaton syndrome, motor neuron disorders and polyneuropathy. Patients with Lambert Eaton syndrome are commonly treated with inhibitors of voltage gated K^+ channels such as 3,4-diaminopyridine (3,4-AP). Based on this it was determined whether recovery of nerve-stimulated force at elevated extracellular Mg^2+ with CIC-1 inhibiting compounds could be added to force recovery with 3,4-AP. […] FIG. 6A-D show recordings of nerve-stimulated force production at different Mg^2+ concentrations when tested under these four experimental conditions. […] To quantify the effect of compounds on Mg^2+ sensitivity the force at the different Mg^2+ concentrations was determined. In plots of nerve-stimulated force against Mg^2+ concentration (FIG. 6E) the Kd,Mg^2+ was determined by fitting four parameter sigmoidal function to the data. Kd, Mg^2+ for the different compounds have been collected in Table 5.

[2] = tested on: isolated rat soleus muscles; experiment: Recovery of nerve-stimulated force in isolated rat soleus muscles exposed to sub-maximal tubocurarine
Protocol: (§1) Experiments were performed using rat soleus muscles from either young (4-wk-old) or adult Wistar rats (12-14-week-old). Animal handling, killing and isolation of muscle is described elsewhere All experiments were performed using normal Krebs-Ringer bicarbonate solution (NKR). In solutions with elevated Mg^2+, MgCl2 was added to NKR-solution causing minor increases in osmolarity and ionic strength. In solutions with elevated K^+, 4 mM NaCl was replaced by 4 mM KCl in the NKR.
(§2) In all contraction experiments, isometric force production was determined and force produced during contractions was quantified by measuring the integral of the force response (AUC). Stimulation and force recordings have been described elsewhere. […] In these latter experiments, extracellular recordings of action potentials (M-waves) could be measured without temporal overlap with stimulation artefacts.
The aim was to find compounds that by inhibition of CIC-1 channels can recover nerve-stimulated force under conditions of fatigue including conditions where fatigue is caused by compromised neuromuscular transmission. Neuromuscular transmission dysfunction can develop because of both pre- and/or post-synaptic complications in connection with a disorder or as part of neuromuscular blockade during/after surgery. In the initial series of drug testing, experiments were performed with isolated muscles in the presence of sub-maximal ACh receptor antagonist tubocurarine. Since the inclusion of tubocurarine caused a partial loss of neuromuscular transmission this experiment mimics the conditions in myasthenia gravis and neuromuscular blockade. To mimic conditions with pre-synaptic complication (Lambert Eaton syndrome, motor neuron disorder, polyneuropathy) the intact nerve-muscle preparations were incubated at elevated extracellular Mg^2+, which is known to suppress release of ACh from nerve terminals of motor neurons.
To identify CIC-1 inhibitors that could be used for treatment of neuromuscular disorders we repeated the experiment shown in FIG. 2A but instead of adding 9-AC we added the compounds of interest in different concentrations within the range from 10 to 500 μM. […] For comparison with the muscle only exposed to tubocurarine (grey trace), the two traces have been overlaid. […] For comparison, muscles only exposed to tubocurarine have been included. The dotted line indicates the recovery of force with C8 when compared to the force production before its addition. This value was used in Table 1 for evaluation of the efficacy of the different compounds in recovering force.

[3] = tested on: isolated rat soleus muscles; experiment: Recovery of nerve-stimulated force in isolated rat soleus muscles at elevated extracellular Mg2+ (3.5 mM)
Protocol: as §1, §2
The aim was to find compounds that by inhibition of CIC-1 channels can recover nerve-stimulated force under conditions of fatigue including conditions where fatigue is caused by compromised neuromuscular transmission. […]
The next series of experiments determined whether the compounds that recovered nerve-stimulated force in the presence of tubocurarine could also recover nerve-stimulated force at elevated extracellular Mg^2+.

human CIC-1 channels = molecular target: T1, human CIC-1 channels (Homo sapiens, UniProt P35523); experiment: Automated patch-clamp on human CIC-1 expressed in CHO cells; type: cell-based; conditions: compound added to the intracellular solution vs vehicle control patches; positive shift reflects CIC-1 inhibition
T1 construct: host or cells: CHO (Chinese hamster ovary) cells
T1 sequence (P35523 whole entry): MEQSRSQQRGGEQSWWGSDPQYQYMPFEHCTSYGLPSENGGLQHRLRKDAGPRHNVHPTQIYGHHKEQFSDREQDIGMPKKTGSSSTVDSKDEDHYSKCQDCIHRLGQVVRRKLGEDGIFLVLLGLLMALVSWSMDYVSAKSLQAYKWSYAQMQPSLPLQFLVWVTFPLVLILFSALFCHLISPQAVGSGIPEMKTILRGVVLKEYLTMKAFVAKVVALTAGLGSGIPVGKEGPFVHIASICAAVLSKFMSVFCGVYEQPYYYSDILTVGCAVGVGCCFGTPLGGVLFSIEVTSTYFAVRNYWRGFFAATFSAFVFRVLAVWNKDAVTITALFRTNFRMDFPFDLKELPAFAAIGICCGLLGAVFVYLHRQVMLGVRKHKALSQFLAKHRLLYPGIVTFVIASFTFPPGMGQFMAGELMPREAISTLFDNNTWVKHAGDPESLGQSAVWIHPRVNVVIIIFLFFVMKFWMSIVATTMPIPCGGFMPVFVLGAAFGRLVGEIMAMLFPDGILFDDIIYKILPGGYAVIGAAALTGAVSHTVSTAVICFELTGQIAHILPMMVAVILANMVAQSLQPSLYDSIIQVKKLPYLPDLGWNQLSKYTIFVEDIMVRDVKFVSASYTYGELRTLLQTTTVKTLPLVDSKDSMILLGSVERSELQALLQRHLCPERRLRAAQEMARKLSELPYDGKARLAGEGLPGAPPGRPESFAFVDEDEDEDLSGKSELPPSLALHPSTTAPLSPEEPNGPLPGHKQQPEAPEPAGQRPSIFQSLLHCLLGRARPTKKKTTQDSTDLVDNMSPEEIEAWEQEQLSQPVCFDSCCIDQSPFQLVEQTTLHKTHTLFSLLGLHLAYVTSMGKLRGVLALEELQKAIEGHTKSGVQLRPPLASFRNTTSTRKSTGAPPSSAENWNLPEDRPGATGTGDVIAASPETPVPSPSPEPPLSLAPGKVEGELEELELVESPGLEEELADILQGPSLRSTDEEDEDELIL
Protocol: The investigatory goal of these experiments was to evaluate how compounds affect the open probability and current amplitude of human CIC-1 channels expressed in CHO cells. Experiments were performed using an automated patch clamp system that allowed high throughput testing of whole cell patches together with both intracellular and extracellular addition of compound.
Automated whole cell patch clamp experiments were performed with the Qpatch 16 system (Sophion Bioscience, Ballerup, Denmark) at room temperature. Data acquisition and analysis were performed in the Qassay software (ver. 5.6, Odense).
To evoke CIC-1 currents in whole cell patches, the membrane potential was initially stepped from a holding potential of −30 mV to +60 mV for 100 ms and then to various test voltages (sweeps) ranging from +120 mV to −140 mV in steps of 20 mV for 300 ms. To obtain tail currents, the membrane potential was stepped to −100 mV after each test voltage for 300 ms and then relaxed to −30 mV for 2 sec between sweeps (FIG. 3). I/V relationships for whole cell instant and steady state current amplitudes were obtained by plotting average current densities at the beginning and at the end of the 300 ms step against the membrane potential (FIG. 4).
In order to determine the relative overall open probability (P0), the instantaneous tail currents were normalized to the maximal tail current obtained following the most positive voltage step and plotted against the test voltage. Plots of normalized tail currents from each whole cell patch were then fitted to a Boltzmann function allowing determination of half activation voltages (V1/2, FIG. 5).
For automated patch clamp experiments extracellular solutions contained: 2 mM CaCl2, 1 mM MgCl2, 10 mM HEPES, 4 mM KCl, 145 mM NaCl, 10 mM Glucose, pH adjusted to 7.4 with NaOH (2 M). Osmolality adjusted to ˜320 using sucrose.
Intracellular solutions contained: 80 mM CsF, 60 mM CsCl, 5/1 mM KOH/EGTA, 10 mM HEPES, 10 mM NaCl, pH adjusted to 7.2 with NaOH (2 M). Osmolality adjusted to ˜320 mOsm using sucrose.
Cells used in patch clamp experiments were Chinese hamster ovary cells (CHO) constitutively expressing human CIC-1 channels. The amino acid sequence encoded by the cDNA used to create this cell line was identical to the translated sequence for GenBank accession number NM_000083.2. Cells were produced by Charles River (Catalogue CT6175, Cleveland Ohio, USA) in a cryopreserved format. Experiments were performed on the cells directly after thawing (3×10^6 cells used in each experiment).
To evaluate the compound effect on CIC-1, when applied directly to the intracellular side of the cell membrane, the half activation voltage, V1/2, was determined from whole cell patches with compound added to the intracellular solution and then compared to V1/2 determined from control cell patches with only vehicle added to the intracellular solution. Additionally, the effect of extracellular added compound was evaluated by determine V1/2 and steady state current amplitudes before and after exchanging the extracellular solution to contain compound.
The difference in half activation voltage of CIC-1 channels, […]V1/2, was determined as the difference between the cell patches treated intracellularly with compound and control cells patches and is reported in Table 4 below. A positive shift in […]V1/2 is reflecting CIC-1 channel inhibition by the tested compound. P-values of <0.05 is considered significant.

rat soleus muscles [4] = experiment: Tubocurarine concentration required to depress nerve-stimulated force by 50% (Kd,tub), combination with acetylcholinesterase inhibitors
Protocol: FIGS. 5A-5E. […] Muscles from 4-week-old rats were stimulated to contract by activating the motor nerve with short duration pulses in field stimulation. Muscles contracted every 10 min for 2 s in response to 30 Hz stimulation. Four different experimental conditions were used. […] After this pre-incubation, increasing concentrations of tubocurarine were added to the bath solutions with 60 min (corresponding to six contractions) between each increase in tubocurarine. […] FIG. 5C similar to FIG. 5A but this muscle had been pre-incubated with neostigmine. […] The force integral (AUC) was determined at each tubocurarine concentration. Such AUC determinations were plotted against tubocurarine concentration for each muscle.
CIC-1 is a novel target in treatment of neuromuscular complications and it was therefore explored whether this approach for symptomatic treatment could be used in combination with existing symptomatic treatment approaches. In myasthenia gravis, which in isolated muscles was mimicked by tubocurarine, the symptoms of muscle fatigue are most commonly treated with inhibitors of acethylcholineesterase of which neostigmine and pyridostigmine are examples. Also, neostigmine is the most commonly used reversal agent of neuromuscular blocked after surgery. […] FIG. 5A-D show recordings of nerve-stimulated force production at different tubocurarine concentrations when tested under the four experimental conditions. […] To quantify the effect of compounds on tubocurarine sensitivity, the force at the different tubocurarine concentrations was determined. In plots of nerve-stimulated force against tubocurarine concentration (FIG. 5E) Kd,tub was determined by fitting four parameter sigmoidal functions to the data and the Kd,tub for the different compounds have been collected in Table 4.

[5] = Rattus norvegicus, 40 min; read-out: 50 μM % change after addition

Nc1ccncc1N [3,4-AP, 3,4-diaminopyridine, reference compound]
Kd (rat soleus muscles [1]): 5800 ± 300 µM

O=C(O)c1c2ccccc2cc2ccccc12 [Compound 9-AC, 9-anthracenecarboxylic acid, reference compound]
recovery of force and M-wave signal ([2]; tubocurarine): marked recovery of both force and M-wave signal
recovery of force and M-wave signal [3]: marked recovery of both force and M-wave signal

C[C@H](Oc1ccc(Cl)cc1C1CC1)C(=O)O [Compound A-4, (2S)-2-(4-chloro-2-cyclopropylphenoxy)propanoic acid]
ΔV½ (human CIC-1 channels): 8.8 mV

C=Cc1cc(Br)ccc1O[C@@H](C)C(=O)O [Compound A-17, (2S)-2-(4-bromo-2-ethenylphenoxy)propanoic acid]
ΔV½ (human CIC-1 channels): 10.3 mV

C#Cc1cc(Br)ccc1O[C@@H](C)C(=O)O [Compound A-19, (2S)-2-(4-bromo-2-ethynylphenoxy)propanoic acid]
ΔV½ (human CIC-1 channels): 7.7 mV

C#Cc1cc(Cl)ccc1O[C@@H](C)C(=O)O [Compound A-20, (2S)-2-(4-chloro-2-ethynylphenoxy)propanoic acid]
ΔV½ (human CIC-1 channels): 26.4 mV

CCC(=O)c1cc(Cl)ccc1O[C@@H](C)C(=O)O [Compound A-30, (2S)-2-(4-chloro-2-propanoylphenoxy)propanoic acid]
ΔV½ (human CIC-1 channels): 6.2 mV

C[C@H](Oc1ccc(Br)cc1C=C(F)F)C(=O)O [Compound A-36, (2S)-2-[4-bromo-2-(2,2-difluoroethenyl)phenoxy]propanoic acid]
ΔV½ (human CIC-1 channels): 21.5 mV

C[C@H](OCc1ccccc1)C(=O)O [Compound C5, (2S)-2-(benzyloxy)propanoic acid]
activation at 50 µM [2, 5]: -7%

CC(C(=O)O)S(=O)(=O)c1ccc(F)cc1 (centres unmarked) [Compound C6, 2-(4-fluorobenzenesulfonyl)propanoic acid]
activation at 50 µM [2, 5]: -11%

CCC(Oc1ccc(Cl)cc1)C(=O)O (centres unmarked) [Compound C7, 2-(4-chlorophenoxy)butanoic acid]
activation at 50 µM [2, 5]: -12%

NCC(Oc1ccc(F)cc1)C(=O)O (centres unmarked) [Compound C9, 3-amino-2-(4-fluorophenoxy)propanoic acid hydrochloride]
activation at 50 µM [2, 5]: -14%

CC(Oc1ccc(Cl)cc1)C(=O)Oc1ccc(Cl)cc1 (centres unmarked) [Compound C11, 4-chlorophenyl 2-(4-chlorophenoxy)propanoate]
activation at 50 µM ([2]; Rattus norvegicus, 40 min, read-out: 50 μM % change after addition): 46%

COCC(C)C(Oc1ccc(Br)cc1)C(=O)O (centres unmarked) [Compound C21, 2-(4-bromophenoxy)-4-methoxy-3-methylbutanoic acid]
activation at 50 µM [2, 5]: -3%

CN(C)C(=O)Oc1cccc([N+](C)(C)C)c1 [Neostigmine, neostigmine, reference compound]
Kd (rat soleus muscles [4]; Neostigmine (10 nM) alone): 0.166 ± 0.013 µM

CN(C)C(=O)Oc1ccc[n+](C)c1 [Pyridostigmine, pyridostigmine, reference compound]
Kd (rat soleus muscles [4]; Pyridostigmine (100 nM) alone): 0.127 ± 0.015 µM
